Source: PubChem BioAssay (NCI)
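Cells were grown in 96-well plates and exposed to each compound for 48 hours at five concentrations; endpoints were interpolated linearly between bracketing concentrations, or set to the highest concentration if not reached. TGI is the concentration that stops growth completely.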

Experiments:
Experiment in all cases: DTP human tumour cell line panel, 48 h
786-0 renal = tested on: 786-0 renal
A498 renal = tested on: A498 renal
A549 NSCLC = tested on: A549 NSCLC
ACHN renal = tested on: ACHN renal
BT-549 breast = tested on: BT-549 breast
CAKI-1 renal = tested on: CAKI-1 renal
CCRF-CEM leukemia = tested on: CCRF-CEM leukemia
COLO 205 colon = tested on: COLO 205 colon
DU-145 prostate = tested on: DU-145 prostate
EKVX NSCLC = tested on: EKVX NSCLC
HCC-2998 colon = tested on: HCC-2998 colon
HCT-116 colon = tested on: HCT-116 colon
HCT-15 colon = tested on: HCT-15 colon
HL-60(TB) leukemia = tested on: HL-60(TB) leukemia
HOP-62 NSCLC = tested on: HOP-62 NSCLC
HOP-92 NSCLC = tested on: HOP-92 NSCLC
HS 578T breast = tested on: HS 578T breast
HT29 colon = tested on: HT29 colon
IGROV1 ovarian = tested on: IGROV1 ovarian
K-562 leukemia = tested on: K-562 leukemia
KM12 colon = tested on: KM12 colon
LOX IMVI melanoma = tested on: LOX IMVI melanoma
M14 melanoma = tested on: M14 melanoma
MALME-3M melanoma = tested on: MALME-3M melanoma
MCF7 breast = tested on: MCF7 breast
MDA-MB-231 breast = tested on: MDA-MB-231 breast
MDA-MB-435 = tested on: MDA-MB-435
MDA-N = tested on: MDA-N
MOLT-4 leukemia = tested on: MOLT-4 leukemia
NCI-H226 lung = tested on: NCI-H226 lung
NCI-H23 lung = tested on: NCI-H23 lung
NCI-H460 lung = tested on: NCI-H460 lung
NCI-H522 lung = tested on: NCI-H522 lung
NCI/ADR-RES ovarian = tested on: NCI/ADR-RES ovarian
OVCAR-3 ovarian = tested on: OVCAR-3 ovarian
OVCAR-4 ovarian = tested on: OVCAR-4 ovarian
OVCAR-5 ovarian = tested on: OVCAR-5 ovarian
OVCAR-8 ovarian = tested on: OVCAR-8 ovarian
PC-3 prostate = tested on: PC-3 prostate
RXF 393 renal = tested on: RXF 393 renal
SF-268 CNS = tested on: SF-268 CNS
SF-295 CNS = tested on: SF-295 CNS
SF-539 CNS = tested on: SF-539 CNS
SK-MEL-2 melanoma = tested on: SK-MEL-2 melanoma
SK-MEL-28 melanoma = tested on: SK-MEL-28 melanoma
SK-MEL-5 melanoma = tested on: SK-MEL-5 melanoma
SK-OV-3 ovarian = tested on: SK-OV-3 ovarian
SN12C renal = tested on: SN12C renal
SNB-19 CNS = tested on: SNB-19 CNS
SNB-75 CNS = tested on: SNB-75 CNS
SW-620 colon = tested on: SW-620 colon
T-47D breast = tested on: T-47D breast
TK-10 renal = tested on: TK-10 renal
U251 CNS = tested on: U251 CNS
UACC-257 melanoma = tested on: UACC-257 melanoma
UACC-62 melanoma = tested on: UACC-62 melanoma
UO-31 renal = tested on: UO-31 renal

O=C(C1OC1c1ccc(F)cc1)C12CC3CC(CC(C3)C1)C2 (configuration not stated)
TGI (786-0 renal): 36.5 µM | TGI (A498 renal): 58 µM | TGI (A549 NSCLC): 59.7 µM | TGI (ACHN renal): 85 µM | TGI (BT-549 breast): 67.3 µM | TGI (CAKI-1 renal): 57 µM | TGI (CCRF-CEM leukemia): 37 µM | TGI (COLO 205 colon): 30.9 µM | TGI (DU-145 prostate): > 100 µM | TGI (EKVX NSCLC): 45.1 µM | TGI (HCC-2998 colon): 36.8 µM | TGI (HCT-116 colon): 20.1 µM | TGI (HCT-15 colon): 56.7 µM | TGI (HL-60(TB) leukemia): 31.1 µM | TGI (HOP-62 NSCLC): 70.8 µM | TGI (HOP-92 NSCLC): 52.7 µM | TGI (HS 578T breast): 60.1 µM | TGI (HT29 colon): 45.4 µM | TGI (IGROV1 ovarian): 59.8 µM | TGI (K-562 leukemia): 37.2 µM | TGI (KM12 colon): 46.8 µM | TGI (LOX IMVI melanoma): 12.3 µM | TGI (M14 melanoma): 31.4 µM | TGI (MALME-3M melanoma): 78.6 µM | TGI (MCF7 breast): 95.4 µM | TGI (MDA-MB-231 breast): 52.8 µM | TGI (MDA-MB-435): 26.2 µM | TGI (MDA-N): 32.5 µM | TGI (MOLT-4 leukemia): 35.3 µM | TGI (NCI-H226 lung): 46.6 µM | TGI (NCI-H23 lung): 43.4 µM | TGI (NCI-H460 lung): 31.1 µM | TGI (NCI-H522 lung): 38.2 µM | TGI (NCI/ADR-RES ovarian): 48.1 µM | TGI (OVCAR-3 ovarian): 33.5 µM | TGI (OVCAR-4 ovarian): 40.2 µM | TGI (OVCAR-5 ovarian): 54.7 µM | TGI (OVCAR-8 ovarian): 29 µM | TGI (PC-3 prostate): > 100 µM | TGI (RXF 393 renal): 32.7 µM | TGI (SF-268 CNS): 61.2 µM | TGI (SF-295 CNS): 79.1 µM | TGI (SF-539 CNS): 45.7 µM | TGI (SK-MEL-2 melanoma): 30.6 µM | TGI (SK-MEL-28 melanoma): 59 µM | TGI (SK-MEL-5 melanoma): 30.7 µM | TGI (SK-OV-3 ovarian): 70.3 µM | TGI (SN12C renal): 44.4 µM | TGI (SNB-19 CNS): > 100 µM | TGI (SNB-75 CNS): > 100 µM | TGI (SW-620 colon): 44.2 µM | TGI (T-47D breast): > 100 µM | TGI (TK-10 renal): > 100 µM | TGI (U251 CNS): 24.5 µM | TGI (UACC-257 melanoma): 86.6 µM | TGI (UACC-62 melanoma): 38.7 µM | TGI (UO-31 renal): 51.5 µM

O=C(c1ccc(Cl)cc1)N(C(=S)OC12CC3CC(CC(C3)C1)C2)c1ccccc1
TGI (786-0 renal): > 100 µM | TGI (A498 renal): > 100 µM | TGI (A549 NSCLC): > 100 µM | TGI (ACHN renal): > 100 µM | TGI (BT-549 breast): > 100 µM | TGI (CAKI-1 renal): > 100 µM | TGI (CCRF-CEM leukemia): > 100 µM | TGI (COLO 205 colon): 31.2 µM | TGI (DU-145 prostate): > 100 µM | TGI (EKVX NSCLC): 66.5 µM | TGI (HCC-2998 colon): > 100 µM | TGI (HCT-116 colon): > 100 µM | TGI (HCT-15 colon): > 100 µM | TGI (HL-60(TB) leukemia): 62.6 µM | TGI (HOP-62 NSCLC): > 100 µM | TGI (HOP-92 NSCLC): > 100 µM | TGI (HS 578T breast): > 100 µM | TGI (HT29 colon): > 100 µM | TGI (K-562 leukemia): > 100 µM | TGI (KM12 colon): > 100 µM | TGI (M14 melanoma): > 100 µM | TGI (MALME-3M melanoma): > 100 µM | TGI (MCF7 breast): > 100 µM | TGI (MDA-MB-231 breast): > 100 µM | TGI (MDA-MB-435): > 100 µM | TGI (MDA-N): > 100 µM | TGI (MOLT-4 leukemia): 73.5 µM | TGI (NCI-H226 lung): > 100 µM | TGI (NCI-H23 lung): > 100 µM | TGI (NCI-H460 lung): > 100 µM | TGI (NCI-H522 lung): 56.3 µM | TGI (NCI/ADR-RES ovarian): > 100 µM | TGI (OVCAR-3 ovarian): > 100 µM | TGI (OVCAR-4 ovarian): > 100 µM | TGI (OVCAR-5 ovarian): > 100 µM | TGI (OVCAR-8 ovarian): > 100 µM | TGI (PC-3 prostate): > 100 µM | TGI (RXF 393 renal): > 100 µM | TGI (SF-268 CNS): > 100 µM | TGI (SF-295 CNS): > 100 µM | TGI (SF-539 CNS): > 100 µM | TGI (SK-MEL-2 melanoma): > 100 µM | TGI (SK-MEL-28 melanoma): > 100 µM | TGI (SK-MEL-5 melanoma): > 100 µM | TGI (SK-OV-3 ovarian): > 100 µM | TGI (SN12C renal): > 100 µM | TGI (SNB-19 CNS): 89.7 µM | TGI (SNB-75 CNS): > 100 µM | TGI (SW-620 colon): > 100 µM | TGI (T-47D breast): > 100 µM | TGI (TK-10 renal): > 100 µM | TGI (U251 CNS): > 100 µM | TGI (UACC-257 melanoma): > 100 µM | TGI (UACC-62 melanoma): > 100 µM | TGI (UO-31 renal): 74.5 µM
